31 compounds from patent US8710043B2, “TRPM8 antagonists and their use in treatments” (Amgen Inc., priority 2011, dated 2014) can be followed below.

T1 sequence (Q7Z2W7 whole entry): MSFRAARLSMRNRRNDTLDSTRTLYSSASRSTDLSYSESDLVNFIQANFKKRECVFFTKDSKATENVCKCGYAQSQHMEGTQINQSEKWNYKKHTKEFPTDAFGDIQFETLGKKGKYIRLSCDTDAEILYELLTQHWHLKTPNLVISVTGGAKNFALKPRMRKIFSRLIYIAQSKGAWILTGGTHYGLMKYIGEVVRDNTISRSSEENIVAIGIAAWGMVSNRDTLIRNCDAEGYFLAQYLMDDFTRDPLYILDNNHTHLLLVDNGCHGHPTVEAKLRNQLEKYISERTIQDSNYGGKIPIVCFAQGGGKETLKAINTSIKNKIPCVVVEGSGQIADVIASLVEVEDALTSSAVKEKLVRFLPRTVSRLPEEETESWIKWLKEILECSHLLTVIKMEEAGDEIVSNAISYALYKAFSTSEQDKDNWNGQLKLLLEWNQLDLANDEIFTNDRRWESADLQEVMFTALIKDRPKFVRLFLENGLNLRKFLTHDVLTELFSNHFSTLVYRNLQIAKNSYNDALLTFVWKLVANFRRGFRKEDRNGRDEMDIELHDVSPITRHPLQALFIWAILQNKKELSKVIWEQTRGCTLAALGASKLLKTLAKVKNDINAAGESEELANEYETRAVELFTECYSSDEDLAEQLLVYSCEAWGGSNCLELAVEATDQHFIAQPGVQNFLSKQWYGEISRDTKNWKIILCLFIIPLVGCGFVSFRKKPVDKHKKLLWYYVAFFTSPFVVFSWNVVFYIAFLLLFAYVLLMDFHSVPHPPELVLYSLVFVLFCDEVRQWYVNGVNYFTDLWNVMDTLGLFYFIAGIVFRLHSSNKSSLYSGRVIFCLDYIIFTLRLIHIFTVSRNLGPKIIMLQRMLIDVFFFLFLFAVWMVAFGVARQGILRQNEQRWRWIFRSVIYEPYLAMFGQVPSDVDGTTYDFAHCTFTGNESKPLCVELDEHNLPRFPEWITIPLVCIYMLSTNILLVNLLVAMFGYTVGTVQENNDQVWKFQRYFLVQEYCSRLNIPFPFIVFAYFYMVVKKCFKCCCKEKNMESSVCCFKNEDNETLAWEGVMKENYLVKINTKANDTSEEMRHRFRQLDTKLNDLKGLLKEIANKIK

This experiment has as its target T1, human TRPM8 (Homo sapiens, UniProt Q7Z2W7).
T1 construct: expressed in transfected cells; host or cells: Chinese hamster ovary (CHO) cells, T-REx tetracycline-inducible system, co-transfected with aequorin
In words: Luminescence readout assay for measuring intracellular calcium, icilin activation. It counts as cell-based. The following applies: CHO cells expressing human TRPM8, aequorin luminescence, 1 μM icilin activation; read-out: hTRPM8 IC50. The protocol:
Luminescence Readout Assay for Measuring Intracellular Calcium.
A stable Chinese hamster ovary cell line expressing human TRPM8 was generated using tetracycline inducible T-REx™ expression system from Invitrogen, Inc. (Carlsbad, Calif.). […] Twenty four hours before the assay, cells were seeded in 96-well plates and TRPM8 expression was induced with 0.5 μg/mL tetracycline. […] Potential antagonists were added 2.5 min prior to the addition of agonist, 1 μM icilin, 100 μM L-menthol, or 1 min prior to the addition of cold buffer (<10° C.). The luminescence was measured by a CCD camera based FLASH-luminometer built by Amgen, Inc. A cooling device attached to FLASH luminometer was used for cold activation.
(Calcium assays in cells follow changes in intracellular calcium, usually with a dye or a luminescent sensor.)
In the case of `O=C(N[C@@H](c1ccc(C(F)(F)F)cc1)c1ncccc1C(F)(F)F)c1ccncc1` [Example 178, (S)-N-((4-(trifluoromethyl)phenyl)(3-(trifluoromethyl)pyridin-2-yl)methyl)isonicotinamide], the IC50 is 26.2 nM.
As for `Cn1cc(C(=O)N[C@@H](c2cc(F)cc(C(F)(F)F)c2)c2ncccc2F)ccc1=O` [Example 328, (S)-N-((3-fluoro-5-(trifluoromethyl)phenyl)(3-fluoropyridin-2-yl)methyl)-1-methyl-6-oxo-1,6-dihydropyridine-3-carboxamide], the figure is 1060 nM; as for `O=C(N[C@@H](c1ccc(C(F)(F)F)cc1)c1ncccc1F)c1c[nH]c(=O)c(Br)c1` [Example 368, (S)-5-bromo-N-((3-fluoropyridin-2-yl)(4-(trifluoromethyl)phenyl)methyl)-6-oxo-1,6-dihydropyridine-3-carboxamide], 21 nM; as for `O=C(N[C@@H](c1ccc(C(F)(F)F)cc1)c1ncccc1C(F)(F)F)c1ccc(Cl)nc1` [Example 135, (S)-6-chloro-N-((4-(trifluoromethyl)phenyl)(3-(trifluoromethyl)pyridin-2-yl)methyl)nicotinamide], 19.4 nM.
In the case of `COc1ccc([C@H](NC(=O)c2ccc(=O)[nH]c2)c2ncccc2F)cc1F` [Example 336, (S)-N-((3-fluoro-4-methoxyphenyl)(3-fluoropyridin-2-yl)methyl)-6-oxo-1,6-dihydropyridine-3-carboxamide] it was 136 nM; in that of `O=C(N[C@@H](c1ccc(OC(F)(F)F)c(F)c1)c1ccccn1)c1ccc2[nH]c(=O)oc2c1` [Example 391, (S)-N-((3-fluoro-4-(trifluoromethoxy)phenyl)(pyridin-2-yl)methyl)-2-oxo-2,3-dihydrobenzo[d]oxazole-6-carboxamide], 11.7 nM.
In the case of `COc1ncc(C(=O)N[C@@H](c2ccc(C(F)(F)F)cc2)c2ncccc2C(F)(F)F)cn1` [Example 42, (S)-2-methoxy-N-((4-(trifluoromethyl)phenyl)(3-(trifluoromethyl)pyridin-2-yl)methyl)pyrimidine-5-carboxamide] it was 53.9 nM.
With `O=C(N[C@@H](c1ccc(C(F)(F)F)cc1)c1ncccc1C(F)(F)F)c1cnc(O)nc1` [Example 266, (S)-2-Hydroxy-N-((4-(trifluoromethyl)phenyl)(3-(trifluoro-methyl)pyridin-2-yl)methyl)pyrimidine-5-carboxamide], the IC50 amounted to 223 nM.
In the case of `Cn1cc(C(=O)N[C@@H](c2ccc(F)cc2)c2ncccc2F)ccc1=O` [Example 341, (S)-N-((4-fluorophenyl)(3-fluoropyridin-2-yl)methyl)-1-methyl-6-oxo-1,6-dihydropyridine-3-carboxamide] it was 4280 nM.
As to `Cc1cc([C@H](NC(=O)c2ccc(=O)[nH]c2)c2ncccc2F)ccc1F` [Example 338, (S)-N-((4-fluoro-3-methylphenyl)(3-fluoropyridin-2-yl)methyl)-6-oxo-1,6-dihydropyridine-3-carboxamide], the IC50 worked out at 264 nM.
In the case of `COc1ccc(C(=O)N[C@@H](c2ccc(C(F)(F)F)cc2)c2ncccc2C(F)(F)F)nc1` [Example 210, (S)-5-methoxy-N-((4-(trifluoromethyl)phenyl)(3-(trifluoromethyl)pyridin-2-yl)methyl)picolinamide] it was 150 nM; in that of `O=C1CCc2cc(C(=O)N[C@@H](c3ccc(OC(F)(F)F)cc3)c3ncccc3F)ccc2N1` [Example 352, (S)-N-((3-fluoropyridin-2-yl)(4-(trifluoromethoxy)phenyl)methyl)-2-oxo-1,2,3,4-tetrahydroquinoline-6-carboxamide], 18.8 nM; in that of `Cc1ccc([C@H](NC(=O)c2ccc(=O)[nH]c2)c2ncccc2F)cc1` [Example 379, (S)-N-((3-fluoropyridin-2-yl)(p-tolyl)methyl)-6-oxo-1,6-dihydropyridine-3-carboxamide], 270 nM.
As for `COc1cccnc1[C@@H](NC(=O)c1ccc2cccnc2c1)c1ccc(C(F)(F)F)cc1` [Example 28, (S)-N-((3-methoxypyridin-2-yl)(4-(trifluoromethyl)phenyl)methyl)quinoline-7-carboxamide], the figure is 194 nM; as for `Cn1cc(C(=O)N[C@@H](c2ccc(OC(F)(F)F)c(F)c2)c2ccccc2F)ccc1=O` [Example 296, (S)-N-((3-fluoro-4-(trifluoromethoxy)phenyl)(2-fluorophenyl)methyl)-1-methyl-6-oxo-1,6-dihydropyridine-3-carboxamide], 23.1 nM; as for `COc1ccc(C(=O)N[C@@H](c2ccc(C(F)(F)F)cc2)c2ncccc2C(F)(F)F)cc1` [Example 171, (S)-4-methoxy-N-((4-(trifluoromethyl)phenyl)(3-(trifluoromethyl)pyridin-2-yl)methyl)benzamide], 17.3 nM.
In the case of `COc1cccc(C(=O)N[C@@H](c2ccc(C(F)(F)F)cc2)c2ncccc2C(F)(F)F)n1` [Example 33, (S)-6-methoxy-N-((4-(trifluoromethyl)phenyl)(3-(trifluoromethyl)pyridin-2-yl)methyl)picolinamide] it was 125 nM; in that of `COc1cc(C(=O)N[C@@H](c2ccc(C(F)(F)F)cc2)c2ncccc2C(F)(F)F)ccn1` [Example 34, (S)-2-methoxy-N-((4-(trifluoromethyl)phenyl)(3-(trifluoromethyl)pyridin-2-yl)methyl)isonicotinamide], 32.2 nM; in that of `O=C(N[C@@H](c1ccc(C(F)(F)F)cc1)c1ncccc1C(F)(F)F)c1ccc2c(c1)C(=O)N(c1ccccn1)C2=O` [Example 99, (S)-1,3-dioxo-2-(pyridin-2-yl)-N-((4-(trifluoromethyl)phenyl)(3-(trifluoromethyl)pydin-2-yl)methyl)isoindoline-5-carboxamide 2,2,2-trifluoroacetate], 129 nM.
On to `O=C1Cc2cc(C(=O)N[C@@H](c3ccc(C(F)(F)F)cc3)c3ncccc3F)ccc2N1` [Example 70, (S)-N-((3-fluoropyridin-2-yl)(4-(trifluoromethyl)phenyl)methyl)-2-oxoindoline-5-carboxamide], for which the IC50 was 15.2 nM.
As for `Cc1cc(C(=O)N[C@@H](c2ccc(OC(F)(F)F)c(F)c2)c2ncccc2F)c[nH]c1=O` [Example 403, (S)-N-((3-fluoro-4-(trifluoromethoxy)phenyl)(3-fluoropyridin-2-yl)methyl)-5-methyl-6-oxo-1,6-dihydropyridine-3-carboxamide], the figure is 17.8 nM; as for `CC#Cc1cccnc1[C@@H](NC(=O)c1ccc(=O)[nH]c1)c1ccc(C(F)(F)F)cc1` [Example 92, (S)-6-oxo-N-((3-(prop-1-yn-1-yl)pyridin-2-yl)(4-(trifluoromethyl)phenyl)methyl)-1,6-dihydropyridine-3-carboxamide], 10.3 nM.
As to `Cc1cc(C)cc([C@H](NC(=O)c2ccc(=O)[nH]c2)c2ncccc2F)c1` [Example 324, (S)-N-((3,5-dimethylphenyl)(3-fluoropyridin-2-yl)methyl)-6-oxo-1,6-dihydropyridine-3-carboxamide], the IC50 came out at 1050 nM.
`O=C(N[C@@H](c1cnc2c(F)cccc2c1)c1ncccc1C(F)(F)F)c1ccc2cccnc2c1` [Example 20, (S)-N-((8-fluoroquinolin-3-yl)(3-(trifluoromethyl)pyridin-2-yl)methyl)quinoline-7-carboxamide]: the IC50 amounted to 187 nM.
As for `O=C(N[C@@H](c1ccc(C(F)(F)F)cc1)c1ncccc1C(F)(F)F)c1ccc(=O)[nH]n1` [Example 150, (S)-6-oxo-N-((4-(trifluoromethyl)phenyl)(3-(trifluoromethyl)pyridin-2-yl)methyl)-1,6-dihydropyridazine-3-carboxamide], the figure is 178 nM; as for `Cc1cccnc1[C@@H](NC(=O)c1ccc(=O)[nH]c1)c1ccc(C(F)(F)F)cc1` [Example 82, (S)-N-((3-methylpyridin-2-yl)(4-(trifluoromethyl)phenyl)methyl)-6-oxo-1,6-dihydropyridine-3-carboxamide 2,2,2-trifluoroacetate], 17.7 nM.
With `N#Cc1ccc(C(=O)N[C@@H](c2ccc(C(F)(F)F)cc2)c2ncccc2C(F)(F)F)cn1` [Example 206, (S)-6-cyano-N-((4-(trifluoromethyl)phenyl)(3-(trifluoromethyl)pyridin-2-yl)methyl)nicotinamide], the half-inhibitory concentration (IC50) is 67.5 nM.
As for `COc1ccc([C@H](NC(=O)c2ccc3cccnc3c2)c2ncccc2C(F)(F)F)cc1F` [Example 25, (S)-N-((3-fluoro-4-methoxyphenyl)(3-(trifluoromethyl)pyridin-2-yl)methyl)quinoline-7-carboxamide], the figure is 36.8 nM; as for `O=C(N[C@@H](c1ccc(I)cc1)c1ncccc1C(F)(F)F)c1ccc(=O)[nH]c1` (stereo in doubt) [Example 376, N-((4-iodophenyl)(3-(trifluoromethyl)pyridin-2-yl)methyl)-6-oxo-1,6-dihydropyridine-3-carboxamide], 53 nM.
As for `N#Cc1cccnc1[C@@H](NC(=O)c1ccc2cccnc2c1)c1ccc(C(F)(F)F)cc1` [Example 278, (S)—N-((3-Cyanopyridin-2-yl)(4-(trifluoromethyl)phenyl)-methyl)quinoline-7-carboxamide], the figure is 317 nM.
In the case of `CC(=O)NC(C)C(=O)N[C@@H](c1ccc(C(F)(F)F)cc1)c1ncccc1C(F)(F)F` (stereo partly drawn) [Example 162, 2-acetamido-N-((S)-(4-(trifluoromethyl)phenyl)(3-(trifluoromethriyl)pyridin-2-yl)methyl)propanamide] it was 4380 nM.

As a reminder, the IC50 is the concentration needed to halve the response being measured.
